Laboratory results reported in US6365135B1, “Use of amino phenol amide derivatives as depigmentation agents” (L'Oreal, priority 1997, dated 2002).

Tested on: co-culture of keratinocytes and melanocytes
Test: Depigmenting activity test: inhibition of melanogenesis on a co-culture of keratinocytes and melanocytes
Assay type: cell-based
Settings: for Class (maximum depigmenting activity): inhibition of melanogenesis relative to the control; for IC50: co-culture of keratinocytes and melanocytes, read-out: IC50 (concentration for which a 50% inhibition of melanogenesis is observed)
Protocol: This test corresponds to the one described in patent FR 2,734,825 filed by the Applicant, as well as in the article by R. Schmidt, P. Krien and M. Régnier, Anal. Biochem., 235 (2), 113-18, (1996). This test is thus carried out on a co-culture of keratinocytes and melanocytes.
For each test compound, the IC50 value, which corresponds to the micromolar concentration (μM) for which a 50% inhibition of melanogenesis is observed, is determined.
Moreover, a class is given to each of these compounds as regards their maximum depigmenting activity:
class 1: 10 to 30% inhibition of melanogenesis relative to the control (same experiment without test compound);
class 2: 30 to 60% inhibition of melanogenesis relative to the control (same experiment without test compound);
class 3: 60 to 100% inhibition of melanogenesis relative to the control (same experiment without test compound).

Row | Compound | Class (maximum depigmenting activity) (500 μM) | IC50 | Class (maximum depigmenting activity) (100 μM)
1 | O=c1cc(CO)occ1O [Kojic acid] | 2 to 500 μM (class 2: 30 to 60% inhibition of melanogenesis relative to the control (same experiment without test compound)) | 500 µM | –
2 | CCCCCCCCCCCC(=O)Oc1ccc(NC(C)=O)cc1 [Lauroyl [4-(N-acetylamino)] phenol, Lauroyl [4-(N-acetylamino)]phenol] | – | > 100 µM | 2 to 100 μM (class 2: 30 to 60% inhibition of melanogenesis relative to the control (same experiment without test compound))
